# Calls of active or inactive are those of the source. The calls are words filed in the database; no cut-off is given here.
# Legend:
# M12 [1] = assay: Reversal of disorganized beta-1 integrin in human M12 cells at 1 uM after 8 days by confocal immunofluorescence microscopy; format: functional, cell-based
# DU-145 = assay: Antiproliferative activity against human DU145 cells after 72 hrs by WST-1 assay; format: functional, cell-based
# PC-3 = assay: Antiproliferative activity against human PC3 cells after 72 hrs by WST-1 assay; format: functional, cell-based
# [2] = Toxicity in sheep RBC assessed as hemolysis at 1 uM after 60 mins; format: cell-based, Ovis aries; settings: erythrocyte, 1 h
# M12 [3] = assay: Inhibition of human M12 cells invasion after 16 hrs; format: functional, cell-based
# M12 [4] = assay: Antiproliferative activity against human M12 cells after 72 hrs by WST-1 assay; format: functional, cell-based
# [5] = Reduction of vimentin gene expression in human M12 cells at 1 uM after 8 days by confocal immunofluorescence microscopy; format: functional, cell-based
# [6] = Inhibition of human M12 cells invasion at 50 to 500 nM after 16 hrs; format: functional
# M12 [7] = assay: Reversal of 3D IrECM gel-induced morphological changes in human M12 cells at 500 nM to 1 uM after 5 to 8 days by light microscopic analysis; format: functional, cell-based
# M12 [8] = assay: Reversal of disorganized alpha6 integrin in human M12 cells at 1 uM after 8 days by confocal immunofluorescence microscopy; format: functional, cell-based
# [9] = Antitumor activity against human M12 cells xenografted in athymic nude mouse assessed as reduction of tumor size at 0.3 mg/kg, iv administered once every fourth day for 16 days; format: functional; set-up: scale not given: the % may be the effect or the level left
# [10] = Inhibition of human M12 cells adhesion at 10 to 100 nM after 24 hrs; format: functional
structure (smiles),measurement,setting,value
CCCCCCCC/C=C\c1c(C)c(/C=C\CCCCCCCC)c2[n+](c1C)CCC2.O=C([O-])C(F)(F)F [ANIBAMINE],Activity,M12 [1],Active
same,Activity,DU-145,Dose-dependent effect
same,Activity,PC-3,Dose-dependent effect
same,Activity,[2],Non-toxic
same,inhibition,M12 [3],Dose-dependent effect
same,Activity,M12 [4],Dose-dependent effect
same,Activity,[5],Active
same,inhibition (INH),[6],42%
same,Activity,M12 [7],Active
same,Activity,M12 [8],Active
same,Activity,[9],50%
same,inhibition (INH),[10],26%
